Legend:
[1] = system: prothrombin fragments 1+2; settings: highest dose regimen; versus unfractionated heparin; cited from earlier work
[2] = molecular target: free factor Xa (Homo sapiens, UniProt P00742); settings: cited from earlier work
[3] = Level of impurities in dependency on Otamixaban concentration and autoclaving (HPLC); assay type: physicochemical
Procedure: Liquid pharmaceutical compositions were prepared containing 1, 5 or 50 mg/mL
The appropriate pH value was adjusted by using sodium hydroxide solution (1 M sodium hydroxide) or diluted hydrochloric acid (1 M hydrochloric acid).

[4] = system: thrombosis; settings: rodent, canine and porcine models; cited from earlier work
[5] = Level of impurities in dependency on pH and repeated autoclaving (1 mg/mL Otamixaban, citrate composition of Example 5, HPLC); assay type: physicochemical
Procedure: The appropriate pH value was adjusted by using sodium hydroxide solution (1 M sodium hydroxide) or diluted hydrochloric acid (1 M hydrochloric acid). […] [table] […] The mobile phase was filtered through a 1.5 μm filter. Typically, add 500 mL of mobile phase A to 500 mL of acetonitrile. Mix and degas. [table] [table]

free factor Xa, sequence (P00742 235-488 limits assumed): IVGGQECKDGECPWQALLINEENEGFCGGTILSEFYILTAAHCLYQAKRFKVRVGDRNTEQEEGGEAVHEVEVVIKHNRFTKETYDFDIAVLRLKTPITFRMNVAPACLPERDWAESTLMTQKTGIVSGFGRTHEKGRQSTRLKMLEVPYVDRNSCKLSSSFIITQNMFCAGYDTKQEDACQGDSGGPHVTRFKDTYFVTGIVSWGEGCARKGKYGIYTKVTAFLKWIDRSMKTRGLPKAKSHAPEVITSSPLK
free factor Xa, sequence (P00742 41-179 partner limits assumed): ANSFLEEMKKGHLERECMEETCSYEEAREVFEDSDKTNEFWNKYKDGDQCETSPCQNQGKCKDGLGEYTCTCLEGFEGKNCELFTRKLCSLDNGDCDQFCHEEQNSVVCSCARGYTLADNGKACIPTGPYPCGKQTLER

- Increase of Formula III (carbamoyl-benzyl butyric acid methyl ester) ([3]; pH 4.2-4.3, 5 mg/mL, vial 5 mL, 20 min 123° C., 0 autoclaving): 0.2%
- Increase of Formula III (carbamoyl-benzyl butyric acid methyl ester) ([3]; pH 4.2-4.3, 5 mg/mL, vial 5 mL, 20 min 123° C., 1 autoclaving): 0.9%
- Increase of Formula III (carbamoyl-benzyl butyric acid methyl ester) ([3]; pH 4.2-4.3, 5 mg/mL, vial 5 mL, 20 min 123° C., 2 autoclaving): 1.7%
- Increase of Formula III (carbamoyl-benzyl butyric acid methyl ester) ([3]; pH 4.2-4.3, 5 mg/mL, vial 5 mL, 20 min 123° C., 3 autoclaving): 2.5%
- Increase of Formula III (carbamoyl-benzyl butyric acid methyl ester) ([3]; pH 4.2, 1 mg/mL, vial 50 mL, 20 min […] C., 0 autoclaving): 0.4%
- Increase of Formula III (carbamoyl-benzyl butyric acid methyl ester) ([3]; pH 4.2, 1 mg/mL, vial 50 mL, 20 min […] C., 1 autoclaving): 1.3%
- Increase of Formula III (carbamoyl-benzyl butyric acid methyl ester) ([3]; pH 4.2, 1 mg/mL, vial 50 mL, 20 min […] C., 2 autoclaving): 2.3%
- Increase of Formula III (carbamoyl-benzyl butyric acid methyl ester) ([3]; pH 4.2, 1 mg/mL, vial 50 mL, 25 min 125° C., 0 autoclaving): 0.4%
- Increase of Formula III (carbamoyl-benzyl butyric acid methyl ester) ([3]; pH 4.2, 1 mg/mL, vial 50 mL, 25 min 125° C., 1 autoclaving): 1.3%
- Increase of Formula III (carbamoyl-benzyl butyric acid methyl ester) ([3]; pH 4.2, 5 mg/mL, vial 5 mL, 20 min 123° C., 0 autoclaving): 0.3%
- Increase of Formula III (carbamoyl-benzyl butyric acid methyl ester) ([3]; pH 4.2, 5 mg/mL, vial 5 mL, 20 min 123° C., 1 autoclaving): 1.0%
- Increase of Formula III (carbamoyl-benzyl butyric acid methyl ester) ([3]; pH 4.2, 5 mg/mL, vial 5 mL, 20 min 123° C., 2 autoclaving): 1.8%
- Increase of Formula III (carbamoyl-benzyl butyric acid methyl ester) ([3]; pH 4.2, 5 mg/mL, vial 5 mL, 20 min 123° C., 3 autoclaving): 2.6%
- Increase of Formula III (carbamoyl-benzyl butyric acid methyl ester) ([3]; pH 4.2, 5 mg/mL, vial 50 mL, 25 min 125° C., 0 autoclaving): 0.4%
- Increase of Formula III (carbamoyl-benzyl butyric acid methyl ester) ([3]; pH 4.2, 5 mg/mL, vial 50 mL, 25 min 125° C., 1 autoclaving): 1.4%
- Increase of Formula III (carbamoyl-benzyl butyric acid methyl ester) ([3]; pH 4.2, 50 mg/mL, vial 5 mL, 20 min 123° C., 0 autoclaving): 0.3%
- Increase of Formula III (carbamoyl-benzyl butyric acid methyl ester) ([3]; pH 4.2, 50 mg/mL, vial 5 mL, 20 min 123° C., 1 autoclaving): 1.1%
- Increase of Formula III (carbamoyl-benzyl butyric acid methyl ester) ([3]; pH 4.2, 50 mg/mL, vial 5 mL, 20 min 123° C., 2 autoclaving): 1.9%
- Increase of Formula III (carbamoyl-benzyl butyric acid methyl ester) ([3]; pH 4.2, 50 mg/mL, vial 5 mL, 20 min 123° C., 3 autoclaving): 2.7%
- Increase of Formula III (carbamoyl-benzyl butyric acid methyl ester) ([5]; pH 2.5, 0 autoclaving): 0.39%
- Increase of Formula III (carbamoyl-benzyl butyric acid methyl ester) ([5]; pH 2.5, 1 autoclaving): 0.71%
- Increase of Formula III (carbamoyl-benzyl butyric acid methyl ester) ([5]; pH 2.5, 2 autoclaving): 1.02%
- Increase of Formula III (carbamoyl-benzyl butyric acid methyl ester) ([5]; pH 2.5, 3 autoclaving): 1.32%
- Increase of Formula III (carbamoyl-benzyl butyric acid methyl ester) ([5]; pH 3.0, 0 autoclaving): 0.39%
- Increase of Formula III (carbamoyl-benzyl butyric acid methyl ester) ([5]; pH 3.0, 1 autoclaving): 0.74%
- Increase of Formula III (carbamoyl-benzyl butyric acid methyl ester) ([5]; pH 3.0, 2 autoclaving): 1.09%
- Increase of Formula III (carbamoyl-benzyl butyric acid methyl ester) ([5]; pH 3.0, 3 autoclaving): 1.43%
- Increase of Formula III (carbamoyl-benzyl butyric acid methyl ester) ([5]; pH 3.2, 0 autoclaving): 0.39%
- Increase of Formula III (carbamoyl-benzyl butyric acid methyl ester) ([5]; pH 3.2, 1 autoclaving): 0.76%
- Increase of Formula III (carbamoyl-benzyl butyric acid methyl ester) ([5]; pH 3.2, 2 autoclaving): 1.13%
- Increase of Formula III (carbamoyl-benzyl butyric acid methyl ester) ([5]; pH 3.2, 3 autoclaving): 1.50%
- Increase of Formula III (carbamoyl-benzyl butyric acid methyl ester) ([5]; pH 3.5, 0 autoclaving): 0.39%
- Increase of Formula III (carbamoyl-benzyl butyric acid methyl ester) ([5]; pH 3.5, 1 autoclaving): 0.81%
- Increase of Formula III (carbamoyl-benzyl butyric acid methyl ester) ([5]; pH 3.5, 2 autoclaving): 1.23%
- Increase of Formula III (carbamoyl-benzyl butyric acid methyl ester) ([5]; pH 3.5, 3 autoclaving): 1.65%
- Increase of Formula III (carbamoyl-benzyl butyric acid methyl ester) ([5]; pH 3.7 (first row), 0 autoclaving): 0.39%
- Increase of Formula III (carbamoyl-benzyl butyric acid methyl ester) ([5]; pH 3.7 (first row), 1 autoclaving): 0.87%
- Increase of Formula III (carbamoyl-benzyl butyric acid methyl ester) ([5]; pH 3.7 (first row), 2 autoclaving): 1.33%
- Increase of Formula III (carbamoyl-benzyl butyric acid methyl ester) ([5]; pH 3.7 (first row), 3 autoclaving): 1.80%
- Increase of Formula III (carbamoyl-benzyl butyric acid methyl ester) ([5]; pH 3.7 (second row), 0 autoclaving): 0.39%
- Increase of Formula III (carbamoyl-benzyl butyric acid methyl ester) ([5]; pH 3.7 (second row), 1 autoclaving): 0.84%
- Increase of Formula III (carbamoyl-benzyl butyric acid methyl ester) ([5]; pH 3.7 (second row), 2 autoclaving): 1.28%
- Increase of Formula III (carbamoyl-benzyl butyric acid methyl ester) ([5]; pH 3.7 (second row), 3 autoclaving): 1.71%
- Increase of Formula III (carbamoyl-benzyl butyric acid methyl ester) ([5]; pH 4.0, 0 autoclaving): 0.39%
- Increase of Formula III (carbamoyl-benzyl butyric acid methyl ester) ([5]; pH 4.0, 1 autoclaving): 0.95%
- Increase of Formula III (carbamoyl-benzyl butyric acid methyl ester) ([5]; pH 4.0, 2 autoclaving): 1.48%
- Increase of Formula III (carbamoyl-benzyl butyric acid methyl ester) ([5]; pH 4.0, 3 autoclaving): 2.02%
- Increase of Formula III (carbamoyl-benzyl butyric acid methyl ester) ([5]; pH 4.2, 0 autoclaving): 0.39%
- Increase of Formula III (carbamoyl-benzyl butyric acid methyl ester) ([5]; pH 4.2, 1 autoclaving): 1.08%
- Increase of Formula III (carbamoyl-benzyl butyric acid methyl ester) ([5]; pH 4.2, 2 autoclaving): 1.75%
- Increase of Formula III (carbamoyl-benzyl butyric acid methyl ester) ([5]; pH 4.2, 3 autoclaving): 2.42%
- Increase of Formula III (carbamoyl-benzyl butyric acid methyl ester) ([5]; pH 4.5, 0 autoclaving): 0.39%
- Increase of Formula III (carbamoyl-benzyl butyric acid methyl ester) ([5]; pH 4.5, 1 autoclaving): 1.40%
- Increase of Formula III (carbamoyl-benzyl butyric acid methyl ester) ([5]; pH 4.5, 2 autoclaving): 2.37%
- Increase of Formula III (carbamoyl-benzyl butyric acid methyl ester) ([5]; pH 4.5, 3 autoclaving): 3.36%
- Increase of Formula III (carbamoyl-benzyl butyric acid methyl ester) ([5]; pH 4.7, 0 autoclaving): 0.39%
- Increase of Formula III (carbamoyl-benzyl butyric acid methyl ester) ([5]; pH 4.7, 1 autoclaving): 1.84%
Compound: COC(=O)[C@H](Cc1cccc(C(=N)N)c1)[C@@H](C)NC(=O)c1ccc(-c2cc[n+]([O-])cc2)cc1 (mixture of isomers) [Otamixaban, Methyl (2R,3R)-2-{3-[amino(imino)methyl]benzyl}-3-{[4-(1-oxidopyridin-4-yl)benzoyl]amino}butanoate]
- Reduction of prothrombin fragments 1+2 [1]: reduced prothrombin fragments 1+2 significantly more than unfractionated heparin
- Inhibition of free factor Xa [2]: inhibited
- Efficacy in models of thrombosis [4]: highly efficacious

From US20120252852A1 (SANOFI, priority 2011, published 2012)
